# Assay results published in PubChem BioAssay (NCI).
# “And” between values parts separate entries of the source, which are not always exact repeats. Identical values can stand only once.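 Dose response: 5 concentrations. Exposure: 48 h. Format: 96-well plates. Endpoint: linear interpolation; highest concentration if not reached. GI50: concentration for 50% inhibition of growth. TGI: concentration producing complete growth inhibition.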
# What was measured:
# Assay in all cases: growth of human tumour cells (NCI), 48 h
# SF-539 CNS = tested on: SF-539 CNS
# MOLT-4 leukemia = tested on: MOLT-4 leukemia
# OVCAR-3 ovarian = tested on: OVCAR-3 ovarian
# OVCAR-8 ovarian = tested on: OVCAR-8 ovarian
# PC-3 prostate = tested on: PC-3 prostate
# SN12C renal = tested on: SN12C renal
# SK-MEL-2 melanoma = tested on: SK-MEL-2 melanoma
# TK-10 renal = tested on: TK-10 renal
# K-562 leukemia = tested on: K-562 leukemia
# HCT-116 colon = tested on: HCT-116 colon
SMILES,GI50 (SF-539 CNS),TGI (SF-539 CNS),GI50 (MOLT-4 leukemia),TGI (MOLT-4 leukemia),GI50 (OVCAR-3 ovarian),TGI (OVCAR-3 ovarian),GI50 (OVCAR-8 ovarian),TGI (OVCAR-8 ovarian),GI50 (PC-3 prostate),TGI (PC-3 prostate),GI50 (SN12C renal),TGI (SN12C renal),GI50 (SK-MEL-2 melanoma),TGI (SK-MEL-2 melanoma),GI50 (TK-10 renal),TGI (TK-10 renal),GI50 (K-562 leukemia),TGI (K-562 leukemia),GI50 (HCT-116 colon),TGI (HCT-116 colon)
CCn1c(O)c(/C=N/NC(=O)C(C)c2ccc(CC(C)C)cc2)sc1=S (stereo not given),0.214 µM,0.609 µM,0.479 µM,> 48.2 µM,0.272 µM,3.97 µM,0.493 µM,> 100 µM,0.415 µM,> 41.4 µM,0.619 µM,> 40.3 µM,3.19 µM,> 49.8 µM,2.28 µM,> 50.7 µM,0.282 µM,> 48.4 µM,0.397 µM,> 36.9 µM
COc1ccc(OCC(=O)O)c2c1CCCC2=O,,> 100 µM,,> 100 µM,,> 100 µM,,> 100 µM,,,,> 100 µM,,> 100 µM,,> 100 µM,,> 100 µM,,> 100 µM
CCCC(=O)Nc1cn(COC)c(C(=O)N2C[C@@H]3C[C@]34C2=CC(=O)c2[nH]cc(C)c24)n1,4.27 µM,50 µM and 15.8 µM,1.19 µM,3.8 µM and 21.2 µM,2.98 µM,27.2 µM and 7.03 µM,,12.8 µM and 14 µM,5.65 µM,24.1 µM and 19 µM,,30.9 µM and 22.9 µM,2.98 µM,27.3 µM and 9.29 µM,3 µM,19.1 µM and 6.18 µM,3.02 µM,50 µM and > 100 µM,,50 µM and 82.4 µM
On1c(-c2ccccc2)c(-c2ccccc2N2CCCC2)c2ccccc21,,> 100 µM,,> 100 µM,,> 100 µM,,> 100 µM,,,,> 100 µM,,> 100 µM,,> 100 µM,,> 100 µM,,> 100 µM
O=C(OC1CCC(=C2SCCCS2)[C@H]1C1SCCCS1)c1ccccc1 (stereo not given in full),,> 100 µM,,> 100 µM,,> 100 µM,,> 100 µM,,,,> 100 µM,,> 100 µM,,> 100 µM,,> 100 µM,,> 100 µM
COc1ccc(-c2nnc3n(C)c(=O)c4ccccc4n23)cc1N,1.63 µM,8.82 µM,3.92 µM,> 100 µM,0.0474 µM,> 100 µM,4.94 µM,> 100 µM,2.65 µM,> 100 µM,6.83 µM,> 100 µM,,,,,0.0395 µM,> 100 µM,0.0571 µM,> 100 µM
Cc1ccc2nc(/C(=C/c3ccc(/C=C(\NC(=O)c4ccccc4)c4nc5ccc(C)cc5[nH]4)c(C)c3)NC(=O)c3ccccc3)[nH]c2c1,,28.9 µM,,26.7 µM,,22 µM,,81.8 µM,,,,30.1 µM,,33.3 µM,,88 µM,,45.4 µM,,39.8 µM
CN1C(=O)c2ccccc2NC(=O)C12O[C@@H]2c1ccccc1 (stereo not given in full),,> 100 µM,,> 100 µM,,> 100 µM,,> 100 µM,,> 100 µM,,> 100 µM,,> 100 µM,,> 100 µM,,,,> 100 µM
C/C(CC(=O)Nc1ccc(C)c(C)c1)=N\N(c1ccccc1)c1ccccc1,,> 100 µM,,> 100 µM,,> 100 µM,,> 100 µM,,,,> 100 µM,,> 100 µM,,> 100 µM,,68.9 µM,,> 100 µM
COC(=O)C1CCCC2(C1)OCCO2 (stereo not given),,> 100 µM,,> 100 µM,,> 100 µM,,> 100 µM,,,,> 100 µM,,> 100 µM,,> 100 µM,,> 100 µM,,> 100 µM
CCN(CC)CCNc1nc(N)c(C#N)c(C#N)c1C#N,,> 10 µM,,> 10 µM,,> 10 µM,,> 10 µM,,> 10 µM,,> 10 µM,,,,> 10 µM,,> 10 µM,,> 10 µM
